Source: ChEMBL document CHEMBL3431459, “Roche carnitine palmitoyltransferase modulator screening data (supplementary data associated with the publication CHEMBL2216752)”

Key:
[1] = molecular target: T1, Carnitine O-palmitoyltransferase 1, muscle isoform (Homo sapiens, UniProt Q92523); assay: SUPPLEMENTARY: Inhibition of Carnitine palmitoyltransferase 1, muscle isoform; set-up: species or system Muscle tissue
T1 sequence (Q92523 whole entry): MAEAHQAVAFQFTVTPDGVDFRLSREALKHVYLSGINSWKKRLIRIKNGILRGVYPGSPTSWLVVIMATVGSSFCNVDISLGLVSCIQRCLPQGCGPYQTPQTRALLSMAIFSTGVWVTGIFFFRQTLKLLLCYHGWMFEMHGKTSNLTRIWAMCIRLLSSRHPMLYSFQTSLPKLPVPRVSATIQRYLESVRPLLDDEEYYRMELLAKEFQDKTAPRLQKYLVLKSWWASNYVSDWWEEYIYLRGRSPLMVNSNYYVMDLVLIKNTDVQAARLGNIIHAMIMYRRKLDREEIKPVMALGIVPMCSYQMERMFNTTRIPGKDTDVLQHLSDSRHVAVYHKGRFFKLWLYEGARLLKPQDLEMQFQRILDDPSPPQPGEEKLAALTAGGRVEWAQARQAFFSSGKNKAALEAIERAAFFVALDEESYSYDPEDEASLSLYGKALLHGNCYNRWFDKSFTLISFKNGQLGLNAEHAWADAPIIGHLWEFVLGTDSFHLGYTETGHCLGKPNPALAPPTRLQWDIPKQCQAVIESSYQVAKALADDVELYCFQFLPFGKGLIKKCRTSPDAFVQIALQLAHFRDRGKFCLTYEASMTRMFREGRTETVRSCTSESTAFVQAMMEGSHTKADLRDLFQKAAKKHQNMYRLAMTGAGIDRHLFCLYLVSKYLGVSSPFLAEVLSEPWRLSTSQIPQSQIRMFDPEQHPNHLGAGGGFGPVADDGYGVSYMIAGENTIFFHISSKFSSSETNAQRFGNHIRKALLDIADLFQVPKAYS

[2] = molecular target: T2, Carnitine O-palmitoyltransferase 2, mitochondrial (Homo sapiens, UniProt P23786); assay: (§1) SUPPLEMENTARY: Inhibition of Carnitine palmitoyltransferase 2
T2 sequence (P23786 whole entry): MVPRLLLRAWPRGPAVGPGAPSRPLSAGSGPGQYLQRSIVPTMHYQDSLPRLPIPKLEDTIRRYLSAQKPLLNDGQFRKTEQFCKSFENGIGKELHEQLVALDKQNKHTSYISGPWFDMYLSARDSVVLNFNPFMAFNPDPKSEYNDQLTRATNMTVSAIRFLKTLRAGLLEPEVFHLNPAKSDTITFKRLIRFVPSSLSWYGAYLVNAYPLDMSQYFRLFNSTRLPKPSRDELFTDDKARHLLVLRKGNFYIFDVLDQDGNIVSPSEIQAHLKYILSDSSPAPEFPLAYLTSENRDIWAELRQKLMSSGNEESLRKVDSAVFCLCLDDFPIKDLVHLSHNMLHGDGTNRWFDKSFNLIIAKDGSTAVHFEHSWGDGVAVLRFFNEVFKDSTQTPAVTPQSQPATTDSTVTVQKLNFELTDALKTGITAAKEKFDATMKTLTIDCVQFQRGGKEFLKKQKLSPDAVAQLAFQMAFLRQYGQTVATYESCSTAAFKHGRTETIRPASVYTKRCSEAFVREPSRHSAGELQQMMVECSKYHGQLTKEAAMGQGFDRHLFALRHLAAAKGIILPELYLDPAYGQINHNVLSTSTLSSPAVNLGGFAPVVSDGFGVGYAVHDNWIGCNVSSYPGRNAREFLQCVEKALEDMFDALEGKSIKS

[3] = molecular target: T3, Carnitine O-palmitoyltransferase 2, mitochondrial (Rattus norvegicus, UniProt P18886); assay: as §1
T3 sequence (P18886 whole entry): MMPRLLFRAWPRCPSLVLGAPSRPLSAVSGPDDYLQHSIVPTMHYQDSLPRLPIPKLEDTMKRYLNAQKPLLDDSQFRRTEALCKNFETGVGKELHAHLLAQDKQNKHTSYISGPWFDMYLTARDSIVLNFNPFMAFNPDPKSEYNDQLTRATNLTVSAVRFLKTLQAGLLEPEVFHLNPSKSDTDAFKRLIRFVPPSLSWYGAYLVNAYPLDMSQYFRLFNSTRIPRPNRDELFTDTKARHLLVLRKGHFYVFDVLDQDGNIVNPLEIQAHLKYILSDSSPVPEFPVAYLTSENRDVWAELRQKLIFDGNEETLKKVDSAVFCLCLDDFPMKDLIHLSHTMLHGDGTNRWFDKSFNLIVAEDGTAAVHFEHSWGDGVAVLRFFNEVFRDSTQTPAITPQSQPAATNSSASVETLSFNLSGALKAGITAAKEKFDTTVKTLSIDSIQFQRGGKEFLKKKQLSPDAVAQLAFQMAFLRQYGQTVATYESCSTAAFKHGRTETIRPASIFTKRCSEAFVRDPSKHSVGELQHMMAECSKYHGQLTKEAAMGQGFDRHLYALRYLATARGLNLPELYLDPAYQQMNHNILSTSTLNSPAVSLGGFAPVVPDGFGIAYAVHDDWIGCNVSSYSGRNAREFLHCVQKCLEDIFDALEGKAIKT

[4] = molecular target: T4, Carnitine O-palmitoyltransferase 1, liver isoform (Homo sapiens, UniProt P50416); assay: (§2) SUPPLEMENTARY: Inhibition of Carnitine palmitoyltransferase 1, liver isoform
T4 sequence (P50416 whole entry): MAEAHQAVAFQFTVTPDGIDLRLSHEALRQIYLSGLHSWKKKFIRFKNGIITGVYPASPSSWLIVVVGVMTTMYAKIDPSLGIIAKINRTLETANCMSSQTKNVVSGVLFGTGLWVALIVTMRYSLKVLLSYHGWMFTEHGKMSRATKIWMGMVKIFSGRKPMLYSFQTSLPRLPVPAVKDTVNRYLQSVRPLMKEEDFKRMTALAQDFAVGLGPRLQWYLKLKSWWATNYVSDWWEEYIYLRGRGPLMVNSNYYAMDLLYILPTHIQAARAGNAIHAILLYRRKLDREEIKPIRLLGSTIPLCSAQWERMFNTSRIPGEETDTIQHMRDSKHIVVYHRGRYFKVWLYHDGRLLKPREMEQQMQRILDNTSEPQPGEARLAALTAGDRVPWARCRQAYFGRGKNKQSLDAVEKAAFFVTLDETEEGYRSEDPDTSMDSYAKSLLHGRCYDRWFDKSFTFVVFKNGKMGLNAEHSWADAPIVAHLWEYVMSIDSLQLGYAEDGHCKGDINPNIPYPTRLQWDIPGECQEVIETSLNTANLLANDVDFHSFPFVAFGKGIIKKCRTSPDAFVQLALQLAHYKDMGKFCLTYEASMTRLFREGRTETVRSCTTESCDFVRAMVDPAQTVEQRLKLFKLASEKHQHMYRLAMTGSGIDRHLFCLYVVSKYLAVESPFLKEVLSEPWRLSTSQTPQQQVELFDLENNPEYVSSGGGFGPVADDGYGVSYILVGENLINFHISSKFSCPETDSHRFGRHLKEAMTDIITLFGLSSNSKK

[5] = molecular target: T5, Carnitine O-palmitoyltransferase 1, liver isoform (Rattus norvegicus, UniProt P32198); assay: as §2
T5 sequence (P32198 whole entry): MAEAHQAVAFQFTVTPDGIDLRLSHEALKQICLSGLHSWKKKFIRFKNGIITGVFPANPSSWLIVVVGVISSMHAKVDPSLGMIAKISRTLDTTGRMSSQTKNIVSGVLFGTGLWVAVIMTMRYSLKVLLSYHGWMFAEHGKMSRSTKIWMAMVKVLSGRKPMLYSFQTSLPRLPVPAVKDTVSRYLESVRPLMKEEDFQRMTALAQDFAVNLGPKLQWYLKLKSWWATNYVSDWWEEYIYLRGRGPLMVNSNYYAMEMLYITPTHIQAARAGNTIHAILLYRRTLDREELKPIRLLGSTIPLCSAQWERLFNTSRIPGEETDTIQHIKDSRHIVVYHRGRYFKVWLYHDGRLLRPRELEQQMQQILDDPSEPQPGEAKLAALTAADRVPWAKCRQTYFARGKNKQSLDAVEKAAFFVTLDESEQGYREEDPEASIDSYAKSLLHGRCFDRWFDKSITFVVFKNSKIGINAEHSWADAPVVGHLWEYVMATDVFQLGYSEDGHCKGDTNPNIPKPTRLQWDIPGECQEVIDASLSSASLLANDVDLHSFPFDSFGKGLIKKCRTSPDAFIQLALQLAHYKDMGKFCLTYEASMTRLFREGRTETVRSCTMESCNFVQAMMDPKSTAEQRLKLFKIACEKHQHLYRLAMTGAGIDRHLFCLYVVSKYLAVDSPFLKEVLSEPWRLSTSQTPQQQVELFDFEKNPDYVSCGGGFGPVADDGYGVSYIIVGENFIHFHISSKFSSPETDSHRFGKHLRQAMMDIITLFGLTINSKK

Structure (SMILES)	IC50 [1] [µM]	IC50 [2] [µM]	IC50 [3] [µM]	IC50 [4] [µM]	IC50 [5] [µM]
O=C(COc1ccccc1)N1CCCC[C@@H]1c1noc(-c2cc(F)c(F)cc2F)n1	> 100	> 100	> 100	0.153	0.173
O=C(COc1ccccc1)N1CCNCC1c1nc(-c2ccc(N3CCOCC3)cc2)no1 (centres undefined)	> 100	> 100	> 100	0.0887	0.489
O=C(NCc1ccc(-c2nnn[nH]2)cc1)c1nn(Cc2ccc(OC(F)F)cc2)c2ccc(F)cc12	8.51	> 100	> 100	0.221	0.394
O=C(COc1ccccc1)N1CCCC[C@@H]1c1nnn(-c2ccccc2)n1	> 100	> 100	> 100	0.156	0.0769
O=C(COc1ccccc1)N1CCCC[C@@H]1c1nnn(-c2ccc(F)cc2)n1	> 100	> 100	> 100	0.197	0.256
COc1ccc(-n2nnc([C@H]3CCCCN3C(=O)COc3ccccc3)n2)cc1	> 100	24.2	> 100	0.159	0.103
Nc1ccc(-c2n[nH]c([C@H]3CCCCN3C(=O)COc3ccccc3)n2)cn1	–	80	90.7	0.325	0.759
CS(=O)(=O)c1ccc(-n2nnc([C@H]3CCCCN3C(=O)COc3ccccc3)n2)cc1	> 100	17.4	> 100	0.123	0.607
O=C(COc1ccccc1)N1CCCC[C@@H]1C#Cc1ccc2[nH]cnc2c1	7.31	> 100	> 100	0.13	0.0722
O=C1Nc2ccc(-c3n[nH]c([C@H]4CCCCN4C(=O)COc4ccccc4)n3)cc2CO1	70.7	26.4	50.4	0.223	0.84
O=C1CCC(=O)N1c1cc(F)cc(-c2noc([C@H]3CCCCN3C(=O)COc3ccccc3)n2)c1	> 100	16.2	> 100	0.0757	0.386
O=C([C@H]1CCCCN1C(=O)COc1ccccc1)N1CCN(c2ccccn2)CC1	> 100	1.03	3.35	0.238	0.588
O=C([C@H]1CCCCN1C(=O)COc1ccccc1)N1CCN(c2ncccn2)CC1	> 100	1.56	2.61	0.167	0.322
O=C([C@H]1CCCCN1C(=O)COc1ccccc1)N1CCN(c2cccc(Cl)c2)CC1	> 100	0.544	0.291	0.151	0.233
Cc1ccnc(N2CCN(C(=O)[C@H]3CCCCN3C(=O)COc3ccccc3)CC2)c1	31.7	0.586	1.27	0.124	0.196

The remaining lines, values ahead:

IC50 [1] [µM]	IC50 [2] [µM]	IC50 [3] [µM]	IC50 [4] [µM]	IC50 [5] [µM]	Structure (SMILES)
2.15	2.58	15.4	0.224	0.102	COc1ccc(C)cc1S(=O)(=O)N1CCOc2ccc(C(=O)Nc3ccc(C(=O)O)c(F)c3)cc21
1.82	> 100	> 100	0.388	0.658	COc1ccc(Cl)cc1S(=O)(=O)N1CCCc2ccc(NC(=O)c3ccc(CC(=O)O)cc3)cc21
> 100	0.634	1.61	0.225	0.367	O=C([C@H]1CCCCN1C(=O)COc1ccccc1)N1CCc2c(Cl)cccc2C1
1.52	4.36	10.6	0.0874	0.124	COc1ccc(Cl)cc1S(=O)(=O)N1CCSc2ccc(C(=O)Nc3ccc(C(=O)O)c(Cl)c3)cc21
> 100	3.13	0.961	0.198	0.388	O=C([C@H]1CCCCN1C(=O)COc1ccccc1)N1CCN(c2cc(Cl)cc(Cl)c2)CC1
> 100	> 100	> 100	1.38	1.23	O=C(COc1ccccc1)N1CCCC[C@@H]1c1nc(-c2ccc(Cl)cc2)cs1
> 100	> 100	> 100	0.162	0.381	COc1ccc(Cl)cc1S(=O)(=O)c1c2cc(C(=O)Nc3ccccc3)ccc2nn1C
